Experimental data published in patent EP1247803A2, “Indolinone compounds suitable for modulation of protein kinases” (Sugen, Inc., priority 1996, dated 1998).

Tests used:
[1] = system: MET; experiment: MET biochemical kinase assay; set-up: species or system human; concentration or dose not given beside the values
How it was run: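 Human MET was captured from cell lysates onto ELISA plates via goat anti-rabbit Fc and rabbit polyclonal antibody to the MET cytoplasmic domain. After washing, test compounds and kinase buffer with ATP and divalent metal ions were added. Phosphotyrosine was detected with HRP-conjugated anti-phosphotyrosine antibody and TMB colorimetric read-out.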

[2] = target: T1, FLK-1 receptor (Mus musculus, UniProt P35918); experiment: FLK-1 ELISA (kinase activity of the FLK-1 receptor in FLK-1/NIH3T3 cells, VEGF stimulated); format: cell-based; set-up: concentration or dose not given beside the values
T1 construct: expressed in transfected cells; host or cells: NIH3T3 C7#3
How it was run: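 NIH3T3 C7#3 cells expressing FLK-1 were seeded at 25.000 cells/well, serum-starved overnight in 0.1% FBS, then treated with compound for two hours at 37°C (final DMSO 0.5%) before VEGF stimulation. Receptor was captured on anti-rabbit IgG-coated ELISA plates bearing affinity-purified anti-FLK-1 antiserum.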

[3] = target: PDGF-R (Homo sapiens, UniProt P09619); experiment: PDGF-R ELISA; format: cell-based
From the text: A PDGF-R ELISA is described in International Patent Publication No. WO 96/40116, published December 19, 1996 by Tang et al.

T1 sequence (P35918 20-1345): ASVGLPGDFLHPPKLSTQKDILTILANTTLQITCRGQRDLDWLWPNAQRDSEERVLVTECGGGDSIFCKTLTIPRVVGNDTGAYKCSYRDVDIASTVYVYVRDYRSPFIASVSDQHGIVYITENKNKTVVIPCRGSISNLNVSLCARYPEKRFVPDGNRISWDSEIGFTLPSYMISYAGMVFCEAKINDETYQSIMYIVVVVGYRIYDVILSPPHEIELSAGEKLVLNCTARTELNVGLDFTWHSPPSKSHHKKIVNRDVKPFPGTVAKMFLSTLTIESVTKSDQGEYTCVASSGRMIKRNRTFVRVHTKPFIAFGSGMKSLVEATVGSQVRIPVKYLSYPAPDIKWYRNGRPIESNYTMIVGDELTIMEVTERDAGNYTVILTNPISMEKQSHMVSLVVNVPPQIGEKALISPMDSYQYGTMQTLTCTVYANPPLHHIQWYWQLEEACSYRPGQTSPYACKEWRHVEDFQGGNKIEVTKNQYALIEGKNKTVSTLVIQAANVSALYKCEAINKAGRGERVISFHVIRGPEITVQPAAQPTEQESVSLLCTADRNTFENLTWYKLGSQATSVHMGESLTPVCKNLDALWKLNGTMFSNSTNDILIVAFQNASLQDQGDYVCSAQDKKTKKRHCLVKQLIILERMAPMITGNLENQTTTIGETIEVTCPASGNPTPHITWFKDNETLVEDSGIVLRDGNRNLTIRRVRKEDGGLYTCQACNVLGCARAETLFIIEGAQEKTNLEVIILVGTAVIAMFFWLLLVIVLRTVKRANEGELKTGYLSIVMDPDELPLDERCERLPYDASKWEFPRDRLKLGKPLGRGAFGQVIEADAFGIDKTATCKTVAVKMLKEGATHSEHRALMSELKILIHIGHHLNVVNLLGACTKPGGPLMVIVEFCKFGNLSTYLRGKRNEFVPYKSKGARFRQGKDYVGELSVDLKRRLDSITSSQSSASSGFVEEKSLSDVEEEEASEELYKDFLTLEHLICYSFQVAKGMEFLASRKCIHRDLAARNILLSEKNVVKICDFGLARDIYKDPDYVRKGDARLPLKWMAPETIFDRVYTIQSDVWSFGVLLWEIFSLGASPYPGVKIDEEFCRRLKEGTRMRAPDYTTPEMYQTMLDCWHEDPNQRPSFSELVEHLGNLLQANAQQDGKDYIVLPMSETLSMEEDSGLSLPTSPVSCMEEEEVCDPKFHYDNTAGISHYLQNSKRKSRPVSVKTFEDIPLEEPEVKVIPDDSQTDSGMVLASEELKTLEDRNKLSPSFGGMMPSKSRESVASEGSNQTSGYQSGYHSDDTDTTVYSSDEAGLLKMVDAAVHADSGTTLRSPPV
PDGF-R, sequence (P09619 33-1106, species assumed): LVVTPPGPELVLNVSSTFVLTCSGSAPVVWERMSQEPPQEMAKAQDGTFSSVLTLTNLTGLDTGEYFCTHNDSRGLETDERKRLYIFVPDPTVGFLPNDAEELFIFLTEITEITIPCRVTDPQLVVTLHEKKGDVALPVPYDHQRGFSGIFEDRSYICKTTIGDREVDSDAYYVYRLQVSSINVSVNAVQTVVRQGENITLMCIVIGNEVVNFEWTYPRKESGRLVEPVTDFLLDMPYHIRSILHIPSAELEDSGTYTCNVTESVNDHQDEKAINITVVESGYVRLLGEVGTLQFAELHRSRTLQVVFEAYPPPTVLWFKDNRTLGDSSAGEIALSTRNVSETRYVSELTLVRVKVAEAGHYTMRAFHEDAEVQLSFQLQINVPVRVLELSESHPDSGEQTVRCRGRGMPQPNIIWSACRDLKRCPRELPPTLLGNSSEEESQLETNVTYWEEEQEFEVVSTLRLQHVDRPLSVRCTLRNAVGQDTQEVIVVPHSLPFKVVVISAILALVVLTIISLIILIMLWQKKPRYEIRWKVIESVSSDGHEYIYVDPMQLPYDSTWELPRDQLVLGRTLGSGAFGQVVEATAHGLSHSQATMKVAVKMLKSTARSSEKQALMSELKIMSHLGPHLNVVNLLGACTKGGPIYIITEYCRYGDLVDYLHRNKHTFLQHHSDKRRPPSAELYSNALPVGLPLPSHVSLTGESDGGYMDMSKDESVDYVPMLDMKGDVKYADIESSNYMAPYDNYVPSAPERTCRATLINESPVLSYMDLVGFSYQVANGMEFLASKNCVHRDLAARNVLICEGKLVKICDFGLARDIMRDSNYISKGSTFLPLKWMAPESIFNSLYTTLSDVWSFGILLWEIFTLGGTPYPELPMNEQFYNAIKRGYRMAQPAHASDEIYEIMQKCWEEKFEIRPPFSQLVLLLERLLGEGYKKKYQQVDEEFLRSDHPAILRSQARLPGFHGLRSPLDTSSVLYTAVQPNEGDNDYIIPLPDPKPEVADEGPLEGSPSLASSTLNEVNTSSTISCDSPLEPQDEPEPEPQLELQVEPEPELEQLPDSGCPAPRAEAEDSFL

| Structure (SMILES) | Met Kinase % Inhibition [1] | Fik Kinase %Inhibition [2] | PDGF Kinase %Inhibition [3] |
| --- | --- | --- | --- |
| Cc1c(Br)ccc2c1C(=Cc1ccc(O)cc1O)C(=O)N2 [10723/C08] | 83.0% | -35.5% | 29.0% |
| CCCCN(CCCC)c1ccc(C=C2C(=O)Nc3ccc(CCCl)cc32)cc1 [10722/G10] | 27.0% | -1.7% | 16.9% |
| COc1ccc(C=C2C(=O)Nc3ccc(I)cc32)c(O)c1 [10723/B09] | 57.7% | 2.7% | 27.6% |
| CC(=O)Oc1ccc(C=C2C(=O)Nc3ccc(S(=O)(=O)Nc4ccc(C(F)(F)F)cc4)cc32)cc1OC(C)=O [10723/E05] | 63.7% | 8.9% | -4.9% |
| O=C1Nc2ccc(S(=O)(=O)Nc3ccc(C(F)(F)F)cc3)cc2C1=Cc1cccs1 [10717/E03] | 52.2% | 19.0% | – |
| O=C1Nc2c(Br)cc(Br)cc2C1=Cc1ccc(O)c(O)c1O [10723/A02] | 100.8% | -5.5% | 64.4% |
| COc1cccc(C=C2C(=O)Nc3ccc(S(=O)(=O)N4CCOCC4)cc32)c1O [10723/F03] | 78.3% | 4.4% | 1.3% |
| COc1ccc(C=C2C(=O)Nc3ccc(S(=O)(=O)Nc4ccc(C(F)(F)F)cc4)cc32)c(O)c1 [10723/E09] | 91.7% | 7.9% | 22.1% |
| CNS(=O)(=O)c1ccc2c(c1)C(=Cc1ccc(O)c(O)c1O)C(=O)N2 [10723/D02] | 93.0% | 2.0% | 22.1% |
| Cc1cc(C=C2C(=O)Nc3ccc(I)cc32)ccc1O [10723/B06] | 90.6% | 31.8% | 58.8% |
| CNS(=O)(=O)c1ccc2c(c1)C(=Cc1cc(O)c(O)c(Br)c1)C(=O)N2 [10723/D04] | 97.7% | 15.2% | 31.8% |
| CC(C)(C)c1cc(C=C2C(=O)Nc3ccc(I)cc32)c(O)c(C(C)(C)C)c1 [10723/B11] | 62.6% | 6.3% | 22.8% |
| O=C1Nc2ccc(CCCl)cc2C1=Cc1ccc(F)cc1F [10722/G06] | 12.2% | 7.4% | -6.0% |
| CC(=O)Oc1ccc(C=C2C(=O)Nc3ccc(S(=O)(=O)N4CCOCC4)cc32)cc1OC(C)=O [10723/F05] | 45.6% | -6.4% | -7.7% |
| O=C1Nc2ccc(I)cc2C1=Cc1ccc(O)c(O)c1O [10723/B02] | 100.3% | -0.3% | 29.0% |
| O=C1Nc2ccc(CCCl)cc2C1=Cc1cc(O)c(O)c(Br)c1 [10723/G04] | 85.9% | 8.7% | 21.4% |
| CNS(=O)(=O)c1ccc2c(c1)C(=Cc1[nH]c(C)c(Br)c1Br)C(=O)N2 [10717/D11] | 55.3% | 11.6% | – |
| O=C1Nc2ccc(S(=O)(=O)Nc3ccc(C(F)(F)F)cc3)cc2C1=Cc1ccc(O)cc1O [10723/E08] | 89.3% | -0.4% | 26.3% |
| Cc1c(Br)ccc2c1C(=Cc1cccc(Br)c1)C(=O)N2 [10723/C10] | 43.8% | 9.5% | 25.6% |
| O=C1Nc2ccc(S(=O)(=O)Nc3ccc(C(F)(F)F)cc3)cc2C1=Cc1cccc(Br)c1 [10723/E10] | 59.5% | 5.2% | 44.3% |
| Cn1cccc1C=C1C(=O)Nc2ccc(S(=O)(=O)Nc3ccc(C(F)(F)F)cc3)cc21 [10717/E04] | 29.4% | 6.1% | – |
| O=C1Nc2ccc(I)cc2C1=Cc1ccccc1Br [10723/B07] | 86.7% | 6.5% | 24.9% |
| CNS(=O)(=O)c1ccc2c(c1)C(=Cc1ccc(OC)cc1O)C(=O)N2 [10723/D09] | 62.6% | 50.4% | 21.4% |
| COc1cccc(C=C2C(=O)Nc3c(Br)cc(Br)cc32)c1O [10723/A03] | 76.5% | 1.2% | 11.7% |
| O=C1Nc2ccc(S(=O)(=O)Nc3ccc(C(F)(F)F)cc3)cc2C1=Cc1c[nH]c2ccccc12 [10717/E06] | 24.8% | 7.5% | – |

| Structure (SMILES) | Met Kinase % Inhibition [1] | Fik Kinase %Inhibition [2] | PDGF Kinase %Inhibition [3] |
| --- | --- | --- | --- |
| CNS(=O)(=O)c1ccc2c(c1)C(=Cc1cc(C(C)(C)C)cc(C(C)(C)C)c1O)C(=O)N2 [10723/D11] | 42.0% | 14.8% | 24.9% |
| COc1cccc(C=C2C(=O)Nc3ccc(Br)c(C)c32)c1O [10723/C03] | 88.8% | -3.1% | 42.9% |
| CNS(=O)(=O)c1ccc2c(c1)C(=Cc1ccc(O)c(C)c1)C(=O)N2 [10723/D06] | 60.0% | 17.6% | 6.2% |
| O=C1Nc2c(Br)cc(Br)cc2C1=Cc1ccccc1Br [10723/A07] | 63.2% | -6.1% | 22.1% |
| COc1cccc(C=C2C(=O)Nc3ccc(I)cc32)c1O [10723/B03] | 82.5% | 7.1% | 14.5% |
| O=C1Nc2ccc(S(=O)(=O)Nc3ccc(C(F)(F)F)cc3)cc2C1=Cc1ccc(O)c(O)c1O [10723/E02] | 97.9% | 8.1% | 46.4% |
| CC(=O)Oc1ccc(C=C2C(=O)Nc3c(Br)cc(Br)cc32)cc1OC(C)=O [10723/A05] | 75.7% | -17.8% | 17.9% |
| COc1ccc(C=C2C(=O)Nc3c(Br)cc(Br)cc32)c(O)c1 [10723/A09] | 85.9% | -1.0% | 42.9% |
| O=C1Nc2ccc(CCCl)cc2C1=Cc1ccc(C(=O)O)cc1 [10722/G05] | 9.7% | 10.8% | -6.0% |
| O=C1Nc2ccc(S(=O)(=O)N3CCOCC3)cc2C1=Cc1cc(O)c(O)c(Br)c1 [10723/F04] | 94.0% | 12.3% | 21.4% |
| O=C1Nc2ccc(CCCl)cc2C1=Cc1c(O)cc(O)cc1O [10722/G03] | 52.2% | 5.3% | -3.7% |
| COc1ccc(C=C2C(=O)Nc3ccc(Br)c(C)c32)c(O)c1 [10723/C09] | 84.6% | -22.3% | 62.3% |
| CCOc1ccccc1C=C1C(=O)Nc2ccc(S(=O)(=O)Nc3ccc(C(F)(F)F)cc3)cc21 [10717/E02] | 24.0% | 17.9% | – |
| CC(C)(C)c1cc(C=C2C(=O)Nc3ccc(S(=O)(=O)Nc4ccc(C(F)(F)F)cc4)cc32)c(O)c(C(C)(C)C)c1 [10723/E11] | 50.1% | 8.9% | 32.5% |
| CC(=O)Oc1ccc(C=C2C(=O)Nc3ccc(Br)c(C)c32)cc1OC(C)=O [10723/C05] | 73.1% | 5.6% | 22.8% |
| O=C1Nc2ccc(CCCl)cc2C1=Cc1ccc(O)cc1O [10723/G08] | 79.9% | -22.9% | 7.5% |
| O=C1Nc2c(Br)cc(Br)cc2C1=Cc1cccc(Br)c1 [10723/A10] | 62.1% | -3.1% | 34.6% |
| Cc1cc(C=C2C(=O)Nc3ccc(CCCl)cc32)ccc1O [10723/G06] | 64.5% | 14.1% | -0.8% |
| O=C1Nc2c(Br)cc(Br)cc2C1=Cc1cc(O)c(O)c(Br)c1 [10723/A04] | 97.9% | 27.2% | 13.1% |
| COc1cccc(C=C2C(=O)Nc3ccc(CCCl)cc32)c1O [10723/G03] | 74.7% | 4.3% | 6.2% |
| CC(C)(C)c1cc(C=C2C(=O)Nc3ccc(CCCl)cc32)cc(Cl)c1O [10722/G08] | 66.1% | 8.2% | 12.9% |
| Cc1ccc(C=C2C(=O)Nc3ccc(S(=O)(=O)Nc4ccc(C(F)(F)F)cc4)cc32)s1 [10717/E07] | 41.0% | 15.3% | – |
| O=C1Nc2ccc(S(=O)(=O)Nc3ccc(C(F)(F)F)cc3)cc2C1=Cc1ccc(F)cc1 [10717/E05] | 39.1% | 13.2% | – |
| O=C1Nc2ccc(S(=O)(=O)Nc3ccc(C(F)(F)F)cc3)cc2C1=Cc1ccc(Br)cc1 [10717/E08] | 51.7% | 13.2% | – |
